By viability is commonly meant a read-out of living cells in per cent, often relative to untreated cells. The IC50 is the concentration needed to halve the response being measured.

The record followed here is publication PMC11173485, “Connecting GSK-3β Inhibitory Activity with IKK-β or ROCK-1 Inhibition to Target Tau Aggregation and Neuroinflammation in Alzheimer’s Disease—Discovery, In Vitro and In Cellulo Activity of Thiazole-Based Inhibitors” (Molecules, 2024).

The structures appear in SMILES notation.

Data set [1] is described as follows: Cytotoxicity, PrestoBlue cell viability assay in HT-22 cells. In kind it is cell-based, mouse. Conditions: mouse, HT-22 hippocampal neuronal cells, 24 h; for viability at 24 h, 1 µM: 1 µM (log C -6); for viability at 24 h, 1 µM / viability at 24 h, 10 µM / viability at 24 h, 50 µM / viability at 24 h, 100 µM / viability at 24 h, 0.1 µM: read-out: neurotoxicity in HT-22 cells, % of cell viability; for viability at 24 h, 10 µM: 10 µM (log C -5); for viability at 24 h, 50 µM: 50 µM (log C -4.3); for viability at 24 h, 100 µM: 100 µM (log C -4); for IC50 at 24 h: PrestoBlue, mean ± SEM, read-out: Cytotoxicity in HT-22 Cells (IC50 x¯ ± SEM µM). How it is done: (§1) We assessed their cytotoxic effects at five concentrations (0.1, 1, 10, 50, and 100 µM) in HT-22 (mouse hippocampal neuronal cells) and BV-2 (mouse microglial cells) cell lines using a fluorometric assay with PrestoBlue™ cell viability reagent (Table 4, Table S2 in the SI).
(§2) Mouse microglial cells (BV-2) were a generous gift from Professor Bozena Kaminska-Kaczmarek of the Laboratory of Molecular Neurobiology, Neurobiology Center, Nencki Institute of Experimental Biology, Polish Academy of Sciences, Warsaw, Poland. Cells were cultured in Dulbecco’s modified Eagle’s Medium-high glucose (DMEM, Glutamx Thermo Fisher, Waltham, MA, USA) supplemented with 10% inactivated fetal bovine serum (Thermo Fisher), 100 IU/mL penicillin (Merck), and 100 µg/mL streptomycin (Merck). Cells were cultured in flasks (area 175 cm^2, Nunc) and incubated at 37 °C, 5% CO2. To evaluate the level of NO, IL-6, and TNF-α and the effectiveness of the compounds tested, BV-2 microglia cells were cultured in 96-well culture plates (5 × 10^4 cells per well, Falcon). For the measurement of cell viability and cell membrane damage, cells were placed in 96-well culture plates (2 × 10^4 cells per well, Falcon). Before the tests, cells were grown for 24 h in the incubator (37 °C, 5% CO2). Mouse Hippocampal Neuronal Cell Line (HT-22) was a generous gift from Dr Bartosz Pomierny of the Department of Biochemical Toxicology, Jagiellonian University Medical College, Krakow, Poland. Cells were cultured in Dulbecco’s modified Eagle’s Medium-high glucose (DMEM, Glutamx Thermo Fisher) supplemented with 10% inactivated fetal bovine serum (Thermo Fisher), 100 IU/mL penicillin (Merck), and 100 µg/mL streptomycin (Merck). Cells were cultured in flasks (area 175 cm^2, Nunc) and incubated at 37 °C, 5% CO2. For the measurement of cell viability and neuroprotective effects against okadaic acid, cells were placed in 96-well culture plates (2 × 10^4 cells per well, Falcon). Before the tests, cells were grown for 24 h in the incubator (37 °C, 5% CO2).
(§3) Cell viability was evaluated using the PrestoBlue reagent (Thermo Fisher), according to the manufacturer’s procedures. Following 24 h of incubation with the tested molecule, PrestoBlue reagent was added to a microplate well in an amount equal to one-tenth of the remaining medium volume. The resulting mixture was incubated for 15 min at 37 °C, and the fluorescence intensity (EX 530; EM 580 nm) was measured using the plate reader POLARstar Omega, (BMG Labtech, Ortenberg, Germany). The results (viability values) are provided as a percentage of live cells with respect to DMSO (control sample).
(§4) Cytotoxic effects of selected inhibitors in HT-22 mouse hippocampal neuronal cells and BV-2 mouse microglial cells
(§5) Table S2. Cytotoxic effects of selected inhibitors in HT-22 mouse hippocampal neuronal cells and BV-2 mouse microglial cells. neurotoxicity in HT-22 cellsa immunotoxicity in BV-2 cellsa […]
(§6) a % of cell viability at the given concentration of tested compound; mean value ± standard deviation (SD) of triplicates; b half maximal inhibitory concentration of the tested compound; mean value ± standard error of the mean (SEM) of triplicates; c data obtained in log C of 39 of -8.5; -7.5; -6.5; -5.5; -5, respectively; d data obtained in log C of 49 of -7.5; -6.5; -5.5; -4.5; -4. respectively; nt, not tested.

For data set [2], the system named is HT-22 (mouse hippocampal neuronal cells). Described as above. In kind it is cell-based. Conditions: for effect on cell viability in HT-22 cells (in words): 0.1, 1, 10, 50, and 100 µM. How it is done:
as §1, §2, §3, §4, §5, §6

Data set [3] is described as follows: Cytotoxicity, PrestoBlue cell viability assay in BV-2 cells. In kind it is cell-based, mouse. The conditions noted are these: mouse, BV-2 microglial cells; for viability at 24 h, 1 µM: 1 µM (log C -6); for viability at 24 h, 50 µM: 50 µM (log C -4.3); for viability at 24 h, 100 µM: 100 µM (log C -4); for IC50 at 24 h: PrestoBlue, mean ± SEM, read-out: Cytotoxicity in BV-2 Cells (IC50 x¯ ± SEM µM). How it is done:
as §1, §2, §3, §4, §5, §6

The test system of data set [4] is BV-2 (mouse microglial cells). The data set is described as above. Conditions: for effect on cell viability in BV-2 cells (in words): 0.1, 1, 10, 50, and 100 µM. In kind it is cell-based. As for the experimental part: as §1, §2, §3, §4, §5, §6
Data set [5] concerns the target GSK-3β (Homo sapiens, UniProt P49841). Briefly: ADP-Glo kinase assay, GSK-3β inhibition. In kind it is biochemical. Conditions: for IC50: mean ± SEM, ATP 25 µM. More on the design: purchased Promega. For orientation: ADP-Glo turns the ADP formed in a reaction into a luminescent signal.
The mark [6] stands for this setting: 24 h, read-out: immunotoxicity in BV-2 cells, % of cell viability.
The mark [7] stands for this setting: 10 µM (log C -5), 24 h, read-out: immunotoxicity in BV-2 cells, % of cell viability.

Sequence of GSK-3β (P49841 whole entry): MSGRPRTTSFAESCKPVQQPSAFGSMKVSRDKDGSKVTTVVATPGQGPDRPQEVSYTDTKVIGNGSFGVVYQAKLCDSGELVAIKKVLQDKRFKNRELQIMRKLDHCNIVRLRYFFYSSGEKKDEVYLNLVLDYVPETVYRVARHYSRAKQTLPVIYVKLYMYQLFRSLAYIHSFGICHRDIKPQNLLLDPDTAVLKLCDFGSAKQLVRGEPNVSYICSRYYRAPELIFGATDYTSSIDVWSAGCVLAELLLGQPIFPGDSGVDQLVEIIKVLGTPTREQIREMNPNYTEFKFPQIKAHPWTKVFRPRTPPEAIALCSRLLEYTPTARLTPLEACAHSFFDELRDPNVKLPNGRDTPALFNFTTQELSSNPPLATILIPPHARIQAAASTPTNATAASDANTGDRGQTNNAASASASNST

Consider `COc1nc(-c2ccnc(NC(=O)C3CC3)c2)sc1C(N)=O` [II, reference compound], for which, in data set [1], the viability at 24 h, 1 µM came out at 104%; the viability at 24 h, 10 µM turned out to be 87%; the viability at 24 h, 50 µM worked out at 77%; the viability at 24 h, 100 µM is 64%. Also, in data set [1], the 50% inhibitory concentration (IC50) at 24 h is more than 100 µM and the viability at 24 h, 0.1 µM came out at 107%. The “effect on cell viability in HT-22 cells (in words)” value (shortened to “effect … in HT-22 cells (in words)”) in data set [2] is on record as “decreased cells’ viability”. Besides, in data set [3] (setting [6]), the viability at 24 h, 1 µM came out at 102%; the viability at 24 h, 50 µM was found to be 27%; the viability at 24 h, 100 µM amounted to 4%; the viability at 24 h, 0.1 µM turned out to be 97%. For the same compound, the viability at 24 h, 10 µM in data set [3] (setting [7]) was found to be 60%. Besides, the IC50 at 24 h in data set [3] (24 h) came to 15.4 ± 0.6 µM. Further, in data set [4], the “effect on cell viability in BV-2 cells (in words)” value (from here on “effect … in BV-2 cells (in words)”) is recorded as “decreased cells’ viability”. Besides, the 50% inhibitory concentration (IC50) in data set [5] came out at 0.005 µM.

Consider `CC1(C)NC(=O)c2sc(-c3ccnc(NC(=O)C4CC4)c3)cc2N1` [Compound 40, N-(4-(2,2-Dimethyl-4-oxo-1,2,3,4-tetrahydrothieno [3,2-d]pyrimidin-6-yl)pyridin-2-yl)-cyclopropanecarboxamide], for which, in data set [1], the viability at 24 h, 1 µM amounted to 105%; the viability at 24 h, 10 µM was 71%; the viability at 24 h, 50 µM is 28%; the viability at 24 h, 100 µM worked out at 21%. In data set [1], the half-inhibitory concentration (IC50) at 24 h is 19.9 ± 4.1 µM and the viability at 24 h, 0.1 µM was 100%. In addition, in data set [2], the “effect … in HT-22 cells (in words)” value was “decreased cells’ viability”. In addition, in data set [3] (setting [6]), the viability at 24 h, 1 µM is 109%; the viability at 24 h, 50 µM turned out to be 2%; the viability at 24 h, 100 µM came to 2%; the viability at 24 h, 0.1 µM was 106%. Also, the viability at 24 h, 10 µM in data set [3] (setting [7]) was determined as 9%. Also, the IC50 at 24 h in data set [3] (24 h) came to 3.6 ± 0.7 µM. Besides, the “effect … in BV-2 cells (in words)” value in data set [4] is given as “decreased cells’ viability”. Further, in data set [5], the midpoint of inhibition, the IC50, lay at 0.01 µM.

Turning to `CC(C)C(=O)Nc1cc(-c2cc3c(s2)C(=O)NC(C)(C)N3)ccn1` [Compound 39, N-(4-(2,2-Dimethyl-4-oxo-1,2,3,4-tetrahydrothieno [3,2-d]pyrimidin-6-yl)pyridin-2-yl)isobutyramide], in data set [1], the viability at 24 h, 1 µM was 84%; the viability at 24 h, 10 µM was 55%; the viability at 24 h, 50 µM is 35%; the viability at 24 h, 100 µM was determined as 29%. Moreover, in data set [1], the IC50 at 24 h was determined as 8.4 ± 5.3 µM and the viability at 24 h, 0.1 µM was 91%. In addition, the “effect … in HT-22 cells (in words)” value in data set [2] is given as “decreased cells’ viability”. Moreover, in data set [3] (log C -5 (footnote c; printed in column 100 µM), read-out: immunotoxicity in BV-2 cells, % of cell viability), the viability at 24 h, 10 µM came to 14%. For the same compound, the viability at 24 h, 3.16 µM in data set [3] (log C -5.5 (footnote c; printed in column 50 µM), read-out: immunotoxicity in BV-2 cells, % of cell viability) was 73%. Also, the viability at 24 h, 0.316 µM in data set [3] (log C -6.5 (footnote c; printed in column 10 µM), read-out: immunotoxicity in BV-2 cells, % of cell viability) was found to be 105%. Besides, the IC50 at 24 h in data set [3] (24 h) was 4.5 ± 1.9 µM. Also, in data set [4], the “effect … in BV-2 cells (in words)” value is reported as “decreased cells’ viability”. In data set [5], the half-inhibitory concentration (IC50) amounted to 0.012 µM.

For the compound `CC(C)C(=O)Nc1cc(-c2cc(NC(N)=O)c(C(N)=O)s2)ccn1` [Compound 48, 5-(2-Isobutyramidopyridin-4-yl)-3-ureidothiophene-2-carboxamide], in data set [1], the viability at 24 h, 1 µM was determined as 89%; the viability at 24 h, 10 µM was found to be 77%; the viability at 24 h, 50 µM worked out at 52%; the IC50 at 24 h came out at 36.6 ± 4.3 µM. Further, the viability at 24 h, 0.1 µM in data set [1] worked out at 92%. For the same compound, in data set [2], the “effect … in HT-22 cells (in words)” value is on record as “decreased cells’ viability”. For the same compound, in data set [3] (setting [6]), the viability at 24 h, 1 µM came to 97%; the viability at 24 h, 50 µM was 20%; the viability at 24 h, 0.1 µM was 103%. Moreover, the viability at 24 h, 10 µM in data set [3] (setting [7]) was 66%. For the same compound, the IC50 at 24 h in data set [3] (24 h) was 21.8 ± 3.8 µM. In data set [4], the “effect … in BV-2 cells (in words)” value is “decreased cells’ viability”. The compound further showed an IC50 in data set [5] of 0.022 µM.

Consider `NC(=O)Nc1cc(-c2cccc(NC(=O)C3CC3)c2)sc1C(N)=O` [Compound 58, 5-(3-(Cyclopropanecarboxamido)phenyl)-3-ureidothiophene-2-carboxamide], for which, in data set [1], the viability at 24 h, 1 µM is 92%; the viability at 24 h, 10 µM was found to be 89%; the viability at 24 h, 50 µM is 54%; the viability at 24 h, 100 µM turned out to be 45%. For the same compound, in data set [1], the IC50 at 24 h was 67.1 ± 14.5 µM and the viability at 24 h, 0.1 µM amounted to 94%. The “effect … in HT-22 cells (in words)” value in data set [2] is “decreased cells’ viability”. The “effect on viability of HT-22 cells at concentrations up to 10 µM (in words)” value in data set [2] (up to 10 µM) is “did not decrease the viability of the cells”. In data set [3] (setting [6]), the viability at 24 h, 1 µM is 107%; the viability at 24 h, 50 µM was 52%; the viability at 24 h, 100 µM was 13%; the viability at 24 h, 0.1 µM is 106%. Moreover, the viability at 24 h, 10 µM in data set [3] (setting [7]) was determined as 97%. Further, the IC50 at 24 h in data set [3] (24 h) was 51.4 ± 0.8 µM. The “effect … in BV-2 cells (in words)” value in data set [4] is reported as “decreased cells’ viability”. In data set [4] (up to 10 µM), the “effect on viability of BV-2 cells at concentrations up to 10 µM (in words)” value is on record as “did not decrease the viability of the cells”. For the same compound, the inhibition at 10 µM in data set [5] (10 µM, mean ± SD, read-out: % inh. at 10 µM GSK-3β) turned out to be 36%.
